The assay has as its system NLPR3 inflammasome, LPS activated monocytes. Briefly: IL-1β production by LPS activated monocytes. The following applies: with anti-IL-10 receptor antibody. In kind it is cell-based, human. The procedure:
CD14^+ monocytes were isolated from PBMC using a pan monocyte isolation kit (Miltenyi Biotec, Bergisch Gladbach, Germany) and plated in 96 flat microtiter wells at 2×10^5/200 μL per well and cultured in the presence of LPS. The cells were cultured further in the presence of Z-YVADfmk (20 μM), MMC950 (10 μM), IL-10 (10 ng/ml) or various concentrations of single- or pooled donor […] cell supernatants as summarized in Table 1.
The supernatants were obtained from single- or pooled donor CD4^IL-10 cells activated for 72 hours with a combination of CD3 and CD28 antibodies as described previously. (Andolfi et al. 2012, Mol. Therapy Vol. 20, 1778-1790, Locafaro et al. Mol Ther 2017, 25, 2254) In some cases (FIGS. 35C and 35D), the monocytes were incubated with LPS in combination with the NLPR3 inflammasome activator nigericin (“NIG”) which was added during the last 30 minutes of the LPS activation.

For the molecule `COC(=O)C[C@H](NC(=O)[C@H](C)NC(=O)[C@@H](NC(=O)[C@H](Cc1ccc(O)cc1)NC(=O)OCc1ccccc1)C(C)C)C(=O)CF` [Z-YVADfmk], the “effect of anti-IL-10 receptor antibody on the inhibition of IL-1β production” value is “no effect”.

`CC(C)(O)c1coc(S(=O)(=O)NC(=O)Nc2c3c(cc4c2CCC4)CCC3)c1` [MCC950]: the “effect of anti-IL-10 receptor antibody on the inhibition of IL-1β production” value was “no effect”.

For the origin of these results see US12576150B2, “CD4+ T cells expressing IL-10 and chimeric antigen receptors and uses thereof” (TR1X, INC., priority 2021, dated 2026).
